# Assay results from ChEMBL document CHEMBL3045388, “Sensitivity of Podosphaera aphanis isolates to DMI fungicides: distribution and reduced cross-sensitivity” (Pest Manag Sci, 2010).
# Legend:
# Assay type in all cases: functional, organism-based
# Podosphaera aphanis [1] = assay: Antifungal activity against Podosphaera aphanis isolate LBP in Darselect leaf disks after 8 days; conditions: 192 h
# Podosphaera aphanis [2] = assay: Antifungal activity against Podosphaera aphanis isolate CAM in Darselect leaf disks after 8 days; conditions: 192 h
# Podosphaera aphanis [3] = assay: Antifungal activity against Podosphaera aphanis isolate MEP in Darselect leaf disks after 8 days; conditions: 192 h
# Podosphaera aphanis [4] = assay: Antifungal activity against Podosphaera aphanis isolate DAR1 in Darselect leaf disks after 8 days; conditions: isolate DAR1, 192 h
# Podosphaera aphanis [5] = assay: Antifungal activity against Podosphaera aphanis isolate AVI in Darselect leaf disks after 8 days; conditions: 192 h
# Podosphaera aphanis [6] = assay: Antifungal activity against Podosphaera aphanis isolate SOD in Darselect leaf disks after 8 days; conditions: 192 h
# Podosphaera aphanis [7] = assay: Antifungal activity against Podosphaera aphanis isolate PAJ in Darselect leaf disks after 8 days; conditions: 192 h
# Podosphaera aphanis [8] = assay: Antifungal activity against Podosphaera aphanis isolate ART in Darselect leaf disks after 8 days; conditions: 192 h
# Podosphaera aphanis [9] = assay: Antifungal activity against Podosphaera aphanis isolate DOU in Darselect leaf disks after 8 days; conditions: 192 h
# Podosphaera aphanis [10] = assay: Antifungal activity against Podosphaera aphanis isolate PES in Darselect leaf disks after 8 days; conditions: 192 h
# Podosphaera aphanis [11] = assay: Antifungal activity against Podosphaera aphanis isolate GUI in Darselect leaf disks after 8 days; conditions: 192 h
# Podosphaera aphanis [12] = assay: Antifungal activity against Podosphaera aphanis isolate LI1 in Darselect leaf disks after 8 days; conditions: isolate LI1, 192 h
# Podosphaera aphanis [13] = assay: Antifungal activity against Podosphaera aphanis isolate SOC in Darselect leaf disks after 8 days; conditions: 192 h
# Podosphaera aphanis [14] = assay: Antifungal activity against Podosphaera aphanis isolate MEG in Darselect leaf disks after 8 days; conditions: 192 h
# Podosphaera aphanis [15] = assay: Antifungal activity against Podosphaera aphanis isolate HOR in Darselect leaf disks after 8 days; conditions: 192 h
# Podosphaera aphanis [16] = assay: Antifungal activity against Podosphaera aphanis isolate BRA in Darselect leaf disks after 8 days; conditions: 192 h
# Podosphaera aphanis [17] = assay: Antifungal activity against Podosphaera aphanis isolate MAR in Darselect leaf disks after 8 days; conditions: 192 h
# Podosphaera aphanis [18] = assay: Antifungal activity against Podosphaera aphanis isolate SOU in Darselect leaf disks after 8 days; conditions: 192 h
# Podosphaera aphanis [19] = assay: Antifungal activity against Podosphaera aphanis isolate VIR in Darselect leaf disks after 8 days; conditions: 192 h
# Podosphaera aphanis [20] = assay: Antifungal activity against Podosphaera aphanis isolate BRE in Darselect leaf disks after 8 days; conditions: 192 h
# Podosphaera aphanis [21] = assay: Antifungal activity against Podosphaera aphanis isolate DAR18 in Darselect leaf disks after 8 days; conditions: isolate DAR18, 192 h
# Podosphaera aphanis [22] = assay: Antifungal activity against Podosphaera aphanis isolate SIL in Darselect leaf disks after 8 days; conditions: 192 h
# Podosphaera aphanis [23] = assay: Antifungal activity against Podosphaera aphanis isolate ABA in Darselect leaf disks after 8 days; conditions: 192 h
# Podosphaera aphanis [24] = assay: Antifungal activity against Podosphaera aphanis isolate SAG in Darselect leaf disks after 8 days; conditions: 192 h
compound,measurement,setting,value
CCCCC(C#N)(Cn1cncn1)c1ccc(Cl)cc1 (centres undefined) [MYCLOBUTANIL],EC50,Podosphaera aphanis [1],4.8 µg/mL
same,MIC,Podosphaera aphanis [1],12.5 µg/mL
same,EC50,Podosphaera aphanis [2],2.6 µg/mL
same,MIC,Podosphaera aphanis [2],5.5 µg/mL
same,EC50,Podosphaera aphanis [3],0.8 µg/mL
same,MIC,Podosphaera aphanis [3],3 µg/mL
same,EC50,Podosphaera aphanis [4],4.75 µg/mL
same,MIC,Podosphaera aphanis [4],15 µg/mL
same,EC50,Podosphaera aphanis [5],0.5 µg/mL
same,MIC,Podosphaera aphanis [5],2 µg/mL
same,EC50,Podosphaera aphanis [6],13.1 µg/mL
same,MIC,Podosphaera aphanis [6],21.5 µg/mL
same,EC50,Podosphaera aphanis [7],3 µg/mL
same,MIC,Podosphaera aphanis [7],6.9 µg/mL
same,EC50,Podosphaera aphanis [8],3.9 µg/mL
same,MIC,Podosphaera aphanis [8],10.7 µg/mL
same,EC50,Podosphaera aphanis [9],8.9 µg/mL
same,MIC,Podosphaera aphanis [9],15.5 µg/mL
same,EC50,Podosphaera aphanis [10],< 0.1 µg/mL
same,MIC,Podosphaera aphanis [10],< 0.1 µg/mL
same,EC50,Podosphaera aphanis [11],1.15 µg/mL
same,MIC,Podosphaera aphanis [11],2.35 µg/mL
same,EC50,Podosphaera aphanis [12],3.6 µg/mL
same,MIC,Podosphaera aphanis [12],8.5 µg/mL
same,EC50,Podosphaera aphanis [13],6.45 µg/mL
same,MIC,Podosphaera aphanis [13],26 µg/mL
same,EC50,Podosphaera aphanis [14],1 µg/mL
same,MIC,Podosphaera aphanis [14],2.35 µg/mL
same,EC50,Podosphaera aphanis [15],4.25 µg/mL
same,MIC,Podosphaera aphanis [15],10.8 µg/mL
same,EC50,Podosphaera aphanis [16],1.3 µg/mL
same,MIC,Podosphaera aphanis [16],3 µg/mL
same,EC50,Podosphaera aphanis [17],5.5 µg/mL
same,MIC,Podosphaera aphanis [17],16 µg/mL
same,EC50,Podosphaera aphanis [18],10 µg/mL
same,MIC,Podosphaera aphanis [18],23 µg/mL
same,EC50,Podosphaera aphanis [19],1.8 µg/mL
same,MIC,Podosphaera aphanis [19],5 µg/mL
same,EC50,Podosphaera aphanis [20],5.3 µg/mL
same,MIC,Podosphaera aphanis [20],13.7 µg/mL
same,EC50,Podosphaera aphanis [21],14.7 µg/mL
same,MIC,Podosphaera aphanis [21],31 µg/mL
same,EC50,Podosphaera aphanis [22],2 µg/mL
same,MIC,Podosphaera aphanis [22],6.5 µg/mL
same,EC50,Podosphaera aphanis [23],3.75 µg/mL
same,MIC,Podosphaera aphanis [23],9 µg/mL
same,EC50,Podosphaera aphanis [24],1.7 µg/mL
same,MIC,Podosphaera aphanis [24],5.33 µg/mL
CCCC(Cn1cncn1)c1ccc(Cl)cc1Cl (centres undefined) [PENCONAZOLE],EC50,Podosphaera aphanis [1],4.2 µg/mL
same,MIC,Podosphaera aphanis [1],9.5 µg/mL
same,EC50,Podosphaera aphanis [2],0.9 µg/mL
same,MIC,Podosphaera aphanis [2],2.5 µg/mL
same,EC50,Podosphaera aphanis [3],0.3 µg/mL
same,MIC,Podosphaera aphanis [3],0.8 µg/mL
same,EC50,Podosphaera aphanis [4],2 µg/mL
same,MIC,Podosphaera aphanis [4],3 µg/mL
same,EC50,Podosphaera aphanis [5],0.58 µg/mL
same,MIC,Podosphaera aphanis [5],1.8 µg/mL
same,EC50,Podosphaera aphanis [7],2.9 µg/mL
same,MIC,Podosphaera aphanis [7],3.9 µg/mL
same,EC50,Podosphaera aphanis [8],2.2 µg/mL
same,MIC,Podosphaera aphanis [8],6.6 µg/mL
same,EC50,Podosphaera aphanis [9],1.3 µg/mL
same,MIC,Podosphaera aphanis [9],2 µg/mL
same,EC50,Podosphaera aphanis [10],0.04 µg/mL
same,MIC,Podosphaera aphanis [10],0.15 µg/mL
same,EC50,Podosphaera aphanis [11],0.9 µg/mL
same,MIC,Podosphaera aphanis [11],2.1 µg/mL
same,EC50,Podosphaera aphanis [12],2.45 µg/mL
same,MIC,Podosphaera aphanis [12],5.15 µg/mL
same,EC50,Podosphaera aphanis [13],3.2 µg/mL
same,MIC,Podosphaera aphanis [13],7.9 µg/mL
same,EC50,Podosphaera aphanis [14],0.43 µg/mL
same,MIC,Podosphaera aphanis [14],1 µg/mL
same,EC50,Podosphaera aphanis [15],0.8 µg/mL
same,MIC,Podosphaera aphanis [15],2 µg/mL
same,EC50,Podosphaera aphanis [16],1.48 µg/mL
same,MIC,Podosphaera aphanis [16],2.6 µg/mL
same,EC50,Podosphaera aphanis [17],2.55 µg/mL
same,MIC,Podosphaera aphanis [17],10 µg/mL
same,EC50,Podosphaera aphanis [18],2.1 µg/mL
same,MIC,Podosphaera aphanis [18],9.8 µg/mL
same,EC50,Podosphaera aphanis [19],2 µg/mL
same,MIC,Podosphaera aphanis [19],5 µg/mL
same,EC50,Podosphaera aphanis [20],1.9 µg/mL
same,MIC,Podosphaera aphanis [20],6 µg/mL
same,EC50,Podosphaera aphanis [21],3.5 µg/mL
same,MIC,Podosphaera aphanis [21],9 µg/mL
same,EC50,Podosphaera aphanis [22],0.4 µg/mL
same,MIC,Podosphaera aphanis [22],1 µg/mL
same,EC50,Podosphaera aphanis [23],1.25 µg/mL
same,MIC,Podosphaera aphanis [23],2.85 µg/mL
same,EC50,Podosphaera aphanis [24],0.28 µg/mL
same,MIC,Podosphaera aphanis [24],0.5 µg/mL
